According to US9340819B2, “Method for detecting the presence of carbapenemase-producing bacteria in a sample” (priority 2011, dated 2016):

What was measured:
[1] = system: E. aerogenes; test: MIC of carbapenem by Etest (Example 2); assay type: cell-based, Enterobacter aerogenes
Protocol: (§1) All strains had previously been characterized for their β-lactamase content at the molecular level. Minimum inhibitory concentration of carbapenem were determined using the Etest® (AB bioMérieux, Solna, Sweden) and results were recorded according to US guidelines (CLSI), as updated in 2011.

[2] = system: P. rettgeri; test: MIC by Etest on Mueller-Hinton agar (Example 1); assay type: cell-based, Proteus rettgeri; conditions: Providencia rettgeri; P. rettgeri RAP (9); OXA-181 + OXA-1
Protocol: (§2) Prior to performing the method of the invention, susceptibility testings were performed by determining Minimum Inhibitory Concentration (MIC) values by the Etest® (AB bioMérieux; Solna, Sweden) on Mueller-Hinton agar plates at 37° C. and results of susceptibility testing were recorded according to the Clinical and Laboratory Standards Institute (CLSI) guidelines as modified in June 2010 (18). The breakpoints for imipenem are S≦1 μg/ml (susceptibility) and R≧4 μg/ml (resistant). As for those for ertapenem, they are S≦0.25 μg/ml and R≧1 μg/ml (see Tables 1 and 2).

[3] = system: E. asburiae; test: MIC of carbapenem by Etest (Example 2); assay type: cell-based, Enterobacter asburiae; conditions: E. asburiae IMI-2, n=1
Protocol: as §1

[4] = system: P. stuartii; test: MIC of carbapenem by Etest (Example 2); assay type: cell-based, Providencia stuartii; conditions: P. stuartii NDM-1, n=1
Protocol: as §1

[5] = system: E. coli; test: MIC of carbapenem by Etest (Example 2); assay type: cell-based, Escherichia coli
Protocol: as §1

[6] = system: Salmonella spp.; test: MIC of carbapenem by Etest (Example 2); assay type: cell-based; conditions: Salmonella spp. KPC-2, n=1
Protocol: as §1

[7] = system: E. sakazaki; test: MIC of carbapenem by Etest (Example 2); assay type: cell-based; conditions: ESBL + decreased membrane permeability; E. sakazaki CTX-M-15, n=1
Protocol: as §1

[8] = system: K. ozonae; test: MIC of carbapenem by Etest (Example 2); assay type: cell-based; conditions: K. ozonae KPC-3, n=1
Protocol: as §1

[9] = system: K. pneumoniae; test: MIC by Etest on Mueller-Hinton agar (Example 1); assay type: cell-based; conditions: Klebsiella pneumoniae
Protocol: as §2

[10] = system: C. freundii; test: MIC by Etest on Mueller-Hinton agar (Example 1); assay type: cell-based; conditions: Citrobacter freundii; C. freundii STE (13); NDM-1 + OXA-1 + OXA-9 + OXA-10 + CTX-M-15 + TEM-1
Protocol: as §2

[11] = system: E. cloacae; test: MIC by Etest on Mueller-Hinton agar (Example 1); assay type: cell-based; conditions: Enterobacter cloacae
Protocol: as §2

[12] = system: P. stuartii; test: MIC by Etest on Mueller-Hinton agar (Example 1); assay type: cell-based; conditions: Providencia stuartii, NDM-1 + OXA-1 + CMY-6
Protocol: as §2

[13] = system: P. mirabilis; test: MIC by Etest on Mueller-Hinton agar (Example 1); assay type: cell-based; conditions: Proteus mirabilis, plasmid mediated cephalosporinase ACC-1
Protocol: as §2

[14] = system: E. coli; test: MIC by Etest on Mueller-Hinton agar (Example 1); assay type: cell-based, Escherichia coli; conditions: for MIC: Escherichia coli
Protocol: as §2

[15] = system: S. marcescens; test: MIC of carbapenem by Etest (Example 2); assay type: cell-based, Serratia marcescens
Protocol: as §1

[16] = system: C. freundii; test: MIC of carbapenem by Etest (Example 2); assay type: cell-based, Citrobacter freundii
Protocol: as §1

[17] = system: K. pneumoniae; test: MIC of carbapenem by Etest (Example 2); assay type: cell-based, Klebsiella pneumoniae
Protocol: as §1

C[C@@H](O)[C@H]1C(=O)N2C(C(=O)O)=C(SCCN=CN)C[C@H]12 [IMP, imipenem]
0.12 to 0.25 mg/L: MICs range ([5]; ESBLs, E. coli VEB-1, n=1)
1 µg/mL: MIC [2] | MIC ([9]; K. pneumoniae BEL, OXA-48) | MIC ([9]; K. pneumoniae RAM, OXA-48) | MIC ([14]; E. coli BOU, OXA-48 + CTX-M-15) | MIC ([14]; E. coli DIH, VIM-19) | MIC ([14]; E. coli PSP, KPC-2)
0.38 to 3 mg/L: MICs range ([5]; E. coli OXA-48, n=6)
> 32 µg/mL: MIC ([9]; K. pneumoniae 1 OMA (11), NDM-1 + CTX-M-15 + OXA-1 + OXA-9) | MIC ([9]; K. pneumoniae 2 OMA, NDM-1 + OXA-1) | MIC ([9]; K. pneumoniae 7 AFR, NDM-1 + OXA-1 + CTX-M-15 + CMY-6 + TEM-1) | MIC ([9]; K. pneumoniae MAD, VIM-1 + CTX-M-3) | MIC [10] | MIC ([11]; E. cloacae IR38, NDM-1 + CTX-M-15) | MIC [12]
0.5 to 1 mg/L: MICs range ([17]; K. pneumoniae IMP-8, n=2) | MICs range ([17]; K. pneumoniae OXA-181, n=2)
>32 mg/L: MICs range [3] | MICs range [8] | MICs range ([15]; S. marcescens KPC-2, n=2) | MICs range ([15]; S. marcescens VIM-2, n=1) | MICs range ([16]; C. freundii NDM-1, n=1) | MICs range ([17]; K. pneumoniae NDM-4, n=1) | MICs range ([17]; Plasmid mediated AmpC or chromosomal AmpC + decreased membrane permeability, K. pneumoniae DHA-1, n=1)
16 µg/mL: MIC ([14]; E. coli DIN, KPC)
8 µg/mL: MIC ([9]; K. pneumoniae DIN, NDM-1) | MIC ([9]; K. pneumoniae UK (10), NDM-1 + CTX-M-15 + CMY-4 + OXA-1)
0.5 to 8 mg/L: MICs range ([17]; K. pneumoniae IMP-1, n=5) | MICs range ([17]; K. pneumoniae KPC-3, n=3)
0.06 µg/mL: MICs ([14]; E. coli Ec13 SYD (23), plasmid mediated cephalosporinase CMY-2) | MICs ([14]; E. coli J53 (29), wild-type) | MICs ([14]; E. coli VMC (24), plasmid mediated cephalosporinase CMY-10) | MIC ([14]; E. coli (18), ESBL CTX-M-14) | MIC ([14]; E. coli (20), ESBL VEB-1) | MIC ([14]; E. coli FOR, ESBL CTX-M-15)
0.25 mg/L: MICs range [7] | MICs range ([17]; ESBL + decreased membrane permeability, K. pneumoniae SHV-2a, n=1)
1 mg/L: MICs range ([1]; Plasmid mediated AmpC or chromosomal AmpC + decreased membrane permeability, E. aerogenes Overexpressed cephalosporinase, n=1) | MICs range ([16]; ESBL + decreased membrane permeability, C. freundii TEM-3, n=1) | MICs range ([17]; ESBL + decreased membrane permeability, K. pneumoniae SHV-28, n=1)
0.12 mg/L: MICs range ([5]; ESBLs, E. coli CTX-M-1, n=1) | MICs range ([5]; ESBLs, E. coli CTX-M-3, n=1) | MICs range ([5]; ESBLs, E. coli CTX-M-14, n=2) | MICs range ([5]; ESBLs, E. coli CTX-M-15, n=2) | MICs range ([5]; Plasmid mediated AmpC or chromosomal AmpC + decreased membrane permeability, E. coli ACC-1, n=1) | MICs range ([5]; Plasmid mediated AmpC or chromosomal AmpC + decreased membrane permeability, E. coli CMY-2, n=1) | MICs range ([5]; Plasmid mediated AmpC or chromosomal AmpC + decreased membrane permeability, E. coli CMY-10, n=1) | MICs range ([5]; Plasmid mediated AmpC or chromosomal AmpC + decreased membrane permeability, E. coli DHA-1, n=1) | MICs range ([5]; Plasmid mediated AmpC or chromosomal AmpC + decreased membrane permeability, E. coli Extended spectrum cephalosporinase, n=1) | MICs range ([17]; ESBLs, K. pneumoniae CTX-M-3, n=1) | MICs range ([17]; ESBLs, K. pneumoniae CTX-M-14, n=1) | MICs range ([17]; ESBLs, K. pneumoniae CTX-M-15, n=3) | MICs range ([17]; Plasmid mediated AmpC or chromosomal AmpC + decreased membrane permeability, K. pneumoniae DHA-2, n=1)
6 mg/L: MICs range ([5]; E. coli IMP-8, n=1)
0.19 µg/mL: MIC ([9]; CIP53153, K. pneumoniae CIP53153 (30), wild-type) | MIC ([9]; K. pneumoniae 6299 (19), ESBL OXA-163) | MIC ([9]; K. pneumoniae (16), ESBL CTX-M-15) | MIC ([11]; E. cloacae 2185, ESBL OXA-163) | MIC ([11]; E. cloacae (17), ESBL CTX-M-15) | MIC ([11]; E. cloacae, ESBL VEB-1) | MIC [13]
4 mg/L: MICs range [6]
0.5 to 4 mg/L: MICs range ([5]; E. coli KPC-2, n=5)
0.38 µg/mL: MIC ([11]; E. cloacae ARF (25), overexpression of chromosomal cephalosporinase AmpC) | MIC ([11]; E. cloacae BLA, overexpression of chromosomal cephalosporinase AmpC)
0.5 µg/mL: MIC ([9]; K. pneumoniae BER (28), porin deficiency associated with ESBL, TEM) | MIC ([9]; K. pneumoniae BIC (4), OXA-48) | MIC ([9]; K. pneumoniae CHA (5), OXA-48 + TEM-1) | MIC ([9]; K. pneumoniae COO (27), porin deficiency associated with ESBL, CTX-M-15 + SHV-28) | MIC ([9]; K. pneumoniae HOL, OXA-181 + CTX-M-15) | MIC ([9]; K. pneumoniae MAD (15), IMP-13) | MIC ([9]; K. pneumoniae OMA (8), OXA-181 + CTXM-15 + OXA-1) | MIC ([11]; E. cloacae CON (26), overexpression of chromosomal cephalosporinase AmpC) | MIC ([11]; E. cloacae TUR (6), OXA-48 + SHV-5) | MIC ([14]; E. coli HAN (7), OXA-48) | MIC ([14]; E. coli MAD, IMP-1)
1 to 16 mg/L: MICs range ([5]; E. coli NDM-1, n=7)
32 mg/L: MICs range ([15]; S. marcescens SME-1, n=1) | MICs range ([15]; S. marcescens SME-2, n=1)
2 µg/mL: MIC ([9]; K. pneumoniae EGY, OXA-48 + CTX-M-15) | MIC ([9]; K. pneumoniae H1516-6 COL (3), KPC-2 + TEM-1 + CTXM-15) | MIC ([9]; K. pneumoniae SAB, NDM-1)
8 mg/L: MICs range ([1]; E. aerogenes KPC-2, n=1) | MICs range ([5]; E. coli VIM-19, n=1) | MICs range ([15]; S. marcescens IMP-11, n=1) | MICs range ([17]; K. pneumoniae VIM-19, n=1)
1.5 to 3 mg/L: MICs range ([5]; E. coli VIM-1, n=2)
0.25 to 8 mg/L: MICs range ([17]; ESBL + decreased membrane permeability, K. pneumoniae CTX-M-15, n=8)
12 mg/L: MICs range [4]
6 µg/mL: MIC ([9]; K. pneumoniae 6759 GEN, NDM-1 + CTX-M-15 + OXA-1 + OXA-9 + OXA-10 + CMY16) | MIC ([9]; K. pneumoniae IND, NDM-1 + OXA-1 + CTX-M-15) | MIC ([14]; E. coli 271 AUS (12), NDM-1 + CTX-M-15 + TEM-1) | MIC ([14]; E. coli 5649 GEN, NDM-1 + OXA-1 + CMY-30 + TEM-1)
16 mg/L: MICs range ([5]; Plasmid mediated AmpC or chromosomal AmpC + decreased membrane permeability, E. coli Overexpressed cephalosporinase, n=1)
0.5 mg/L: MICs range ([5]; E. coli IMP-1, n=2)
4 µg/mL: MIC ([11]; E. cloacae (1), KPC-2) | MIC ([14]; E. coli ALL, NDM-1 + OXA-1 + OXA-2 + CTX-M-15 + TEM-1) | MIC ([14]; E. coli COL (2), KPC-2) | MIC ([14]; E. coli RIC, NDM-1 + OXA-1 + OXA-10 + CMY-16)
2 to 4 mg/L: MICs range ([5]; E. coli VIM-2, n=2)
1.5 µg/mL: MIC ([14]; E. coli MAD (14), VIM-1 + CTX-M-3)
